Source: patent publication US20250074911A1, “MACROCYCLIC BTK INHIBITORS” (Crossfire Oncology Holding B.V., priority 2021, published 2025)

What was measured:
[1] = system: REC-1 T474I cell lines; test: Cell proliferation assay REC-1 BTK T474I knock-in cells (ATPlite, 72 hours); assay type: cell-based; conditions: Homo sapiens, Rec1; 72 hours; read-out: IC50 REC-1 T474I
Method: Cell proliferation assay Generation of BTK […] knock-in cell lines wt-REC-1 cell lines expressing mutant BTK were created at Synthego Corporation. Cell lines expressing BTK […] was generated via CRISPR/Cas9. Monoclonal REC-1 […] cell lines were obtained by single cell cloning. The mutation status of all cell lines was confirmed via sequencing. […] Luminescence was recorded on an Envision multimode reader. The cell signal at the start of incubation was recorded separately in order to distinguish between cell population growth and cell death. In addition, maximum growth was determined by incubation of a duplicate without compound in the presence of 0.3% DMSO. Percentage growth was used as the main y-axis signal.

[2] = target: full-length BTK C481S enzyme (Homo sapiens (Human), UniProt Q06187, C481S); test: Biochemical kinase assay BTK C481S (IMAP)
Method: Biochemical kinase assay BTK […] To determine the inhibitory activity of compounds on BTK C481S enzyme activity, the IMAP® assay (Molecular Devices) was used. […] After pre-incubation of 1 hour in the dark at room temperature, fluorescein-labeled MBP-derived substrate peptide (Molecular Devices, cat. no. RP 7123) was added, followed by ATP to start the reaction. Final enzyme concentration was 1.2 nM final substrate concentration 50 nM, and final ATP concentration was 7 μM. The reaction was allowed to proceed for 2 hours at room temperature in the dark. The reaction was stopped by quenching with IMAP progressive binding solution according to the protocol of the manufacturer (Molecular Devices). Fluorescein polarization was measured on an Envision multimode reader (Perkin Elmer, Waltham, MA, U.S.A.). IC50 were calculated using XLfitTM5 software (ID Business Solutions, Ltd., Surrey, U.K.). Results of the BTK […] binding affinity are shown in Table 1 below. • IC50 BTK […]: […]

[3] = system: wt-REC-1 mantle cell lymphoma cells; test: Cell proliferation assay wt-REC-1 (ATPlite, 72 hours); assay type: cell-based; conditions: 72 h; read-out: IC50 wt-REC-1
Method: Results of the BTK […] binding affinity are shown in Table 1 below. • IC50 BTK […]: […] wt-REC-1 mantle cell lymphoma cells were purchased from American Type Culture Collection via Synthego Corporation (cat. no. CRL-3004, ATCC). […] Luminescence was recorded on an Envision multimode reader. The cell signal at the start of incubation was recorded separately in order to distinguish between cell population growth and cell death. In addition, maximum growth was determined by incubation of a duplicate without compound in the presence of 0.3% DMSO. Percentage growth was used as the main y-axis signal. IC50s were fitted by non-linear regression using IDBS XLfitTM5 using a 4-parameter logistic curve, yielding a maximum signal, minimum signal, hill-parameter and IC50. Results of the wt-REC-1 proliferation are shown in Table 1 below. • IC50 wt-REC-1: […]

[4] = target: full-length wt-BTK enzyme (Homo sapiens (Human), UniProt Q06187); test: Biochemical kinase assay wt-BTK (IMAP)
Method: Biochemical kinase assay wt-BTK To determine the inhibitory activity of compounds on wt-BTK enzyme activity, the IMAP® assay (Molecular Devices) was used. […] After pre-incubation of 1 hour in the dark at room temperature, fluorescein-labeled MBP-derived substrate peptide (Molecular Devices, cat. no. RP 7123) was added, followed by ATP to start the reaction. Final enzyme concentration was 1.2 nM, final substrate concentration 50 nM, and final ATP concentration was 4 μM. The reaction was allowed to proceed for 2 hours at room temperature in the dark. The reaction was stopped by quenching with IMAP progressive binding solution according to the protocol of the manufacturer (Molecular Devices). Fluorescein polarization was measured on an Envision multimode reader (Perkin Elmer, Waltham, MA, U.S.A.). […] Results of the wt-BTK binding affinity are shown in Table 1 below. • IC50 wt-BTK: […]

Sequence of full-length BTK C481S enzyme (Q06187 whole entry C481S): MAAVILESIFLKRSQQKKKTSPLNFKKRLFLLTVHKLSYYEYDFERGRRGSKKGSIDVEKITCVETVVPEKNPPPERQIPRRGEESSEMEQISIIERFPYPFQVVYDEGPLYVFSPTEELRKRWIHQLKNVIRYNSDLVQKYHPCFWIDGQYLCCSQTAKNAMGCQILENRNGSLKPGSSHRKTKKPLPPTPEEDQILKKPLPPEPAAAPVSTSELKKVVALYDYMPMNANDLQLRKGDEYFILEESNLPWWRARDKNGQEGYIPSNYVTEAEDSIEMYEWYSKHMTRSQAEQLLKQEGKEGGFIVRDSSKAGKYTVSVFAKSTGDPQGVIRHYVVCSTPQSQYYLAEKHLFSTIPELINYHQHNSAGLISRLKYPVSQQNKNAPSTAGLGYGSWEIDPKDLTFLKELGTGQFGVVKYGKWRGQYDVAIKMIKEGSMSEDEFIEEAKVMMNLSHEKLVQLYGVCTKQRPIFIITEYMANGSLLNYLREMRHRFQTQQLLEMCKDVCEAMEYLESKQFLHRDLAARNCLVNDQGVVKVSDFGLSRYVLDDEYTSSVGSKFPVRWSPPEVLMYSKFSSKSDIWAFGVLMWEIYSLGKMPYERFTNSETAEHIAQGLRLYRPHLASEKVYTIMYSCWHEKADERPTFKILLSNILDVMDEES
Sequence of full-length wt-BTK enzyme (Q06187 whole entry): as the sequence (Q06187 whole entry C481S) above, with S481C counted along it

SMILES | IC50 [1] | IC50 [2] | IC50 [3] | IC50 [4]
COC1/C=C/c2cnc(N)c3c(-c4ccc(C(=O)Nc5cc(C(F)(F)F)ccn5)cc4)nn(c23)[C@@H]2CCC[C@H](C2)NC(=O)CCC1 (stereo partly drawn) [Example 19] | 500 to 10000 nM | 5 to 50 nM | 100 to 1000 nM | 5 to 50 nM
Nc1ncc2c3c1c(-c1ccc(C(=O)Nc4cc(C(F)(F)F)ccn4)cc1)nn3[C@@H]1CCC[C@H](C1)NC(=O)CCCCNC/C=C/2 [Example 22] | 500 to 10000 nM | < 5 nM | 100 to 1000 nM | < 5 nM
C[C@@H]1CCn2nc(-c3ccc(C(=O)Nc4cc(C(F)(F)F)ccn4)cc3)c3c(N)ncc(c32)/C=C/CO[C@@H](C)C(=O)N1 [Example 58] | 500 to 10000 nM | 5 to 50 nM | 1000 to 10000 nM | 5 to 50 nM
C[C@@H]1CCn2nc(-c3ccc(C(=O)Nc4cc(C(F)(F)F)ccn4)cc3)c3c(N)ncc(c32)/C=C/CCCCCCC(=O)N1 [Example 62] | 500 to 10000 nM | < 5 nM | 100 to 1000 nM | < 5 nM
C[C@@H]1CCn2nc(-c3ccc(C(=O)Nc4cc(C(F)(F)F)ccn4)cc3)c3c(N)ncc(c32)/C=C/CCCCCCCC(=O)N1 [Example 63] | 500 to 10000 nM | < 5 nM | 100 to 1000 nM | < 5 nM
C[C@@H]1CCn2nc(-c3ccc(C(=O)Nc4cc(C(F)(F)F)ccn4)cc3)c3c(N)ncc(c32)/C=C/CCCCCCCCC(=O)N1 [Example 64] | 500 to 10000 nM | < 5 nM | 100 to 1000 nM | 5 to 50 nM
C[C@@H]1CCn2nc(-c3ccc(C(=O)Nc4cc(C(F)(F)F)ccn4)cc3)c3c(N)ncc(c32)/C=C/C[S+]([O-])CC(=O)N1 (stereo partly drawn) [Example 65] | 500 to 10000 nM | < 5 nM | 1000 to 10000 nM | < 5 nM
C[C@@H]1CCn2nc(-c3ccc(C(=O)Nc4cc(C(F)(F)F)ccn4)cc3)c3c(N)ncc(c32)/C=C/CN(C)CCCC(=O)N1 [Example 66] | 500 to 10000 nM | < 5 nM | 1000 to 10000 nM | < 5 nM
C[C@@H]1CCn2nc(-c3ccc(C(=O)Nc4cc(C(F)(F)F)ccn4)cc3)c3c(N)ncc(c32)/C=C/CNCCCC(=O)N1 [Example 67] | 500 to 10000 nM | < 5 nM | 1000 to 10000 nM | < 5 nM
Nc1ncc2c3c1c(-c1ccc(C(=O)Nc4cc(C(F)(F)F)ccn4)cc1)nn3[C@@H]1CCC[C@H](C1)C(=O)NCCC/C=C/C2 [Example 84a] | 500 to 10000 nM | 5 to 50 nM | 100 to 1000 nM | 5 to 50 nM
Nc1ncc2c3c1c(-c1ccc(C(=O)Nc4cc(C(F)(F)F)ccn4)cc1)nn3[C@@H]1CCC[C@H](C1)C(=O)NCCC/C=C\C2 [Example 84b] | – | < 5 nM | 100 to 1000 nM | 5 to 50 nM
Nc1ncc2c3c1c(-c1ccc(C(=O)Nc4cc(C(F)(F)F)ccn4)cc1)nn3[C@@H]1CCC[C@H](C1)C(=O)NCCCC/C=C/C2 [Example 85a] | 500 to 10000 nM | 50 to 500 nM | 100 to 1000 nM | 5 to 50 nM
Nc1ncc2c3c1c(-c1ccc(C(=O)Nc4ccccn4)cc1)nn3[C@@H]1CCC[C@H](C1)C(=O)NCCCC/C=C/C2 [Example 87a] | 500 to 10000 nM | 50 to 500 nM | 1000 to 10000 nM | 50 to 500 nM
Nc1ncc2c3c1c(-c1ccc(C(=O)Nc4ccccn4)cc1)nn3[C@@H]1CCC[C@H](C1)C(=O)NCCCCC/C=C/C2 [Example 88a] | 500 to 10000 nM | 5 to 50 nM | 100 to 1000 nM | 5 to 50 nM
Nc1ncc2c3c1c(-c1ccc(C(=O)Nc4cc(C(F)(F)F)ccn4)cc1)nn3[C@@H]1CCC[C@H](C1)C(=O)NCCCCC/C=C/C2 [Example 89a] | 500 to 10000 nM | 5 to 50 nM | 100 to 1000 nM | 5 to 50 nM
Nc1ncc2c3c1c(-c1ccc(C(=O)Nc4ccccn4)cc1)nn3[C@@H]1CCC[C@H](C1)C(=O)NCCC/C=C\C2 [Example 90] | 500 to 10000 nM | 5 to 50 nM | 100 to 1000 nM | 5 to 50 nM

SMILES | IC50 [1] | IC50 [2] | IC50 [3] | IC50 [4]
Nc1ncc2c3c1c(-c1ccc(C(=O)Nc4ccccn4)cc1)nn3[C@@H]1CCC[C@H](C1)C(=O)NCC/C=C\C2 [Example 91] | 500 to 10000 nM | 50 to 500 nM | 1000 to 10000 nM | 50 to 500 nM
Nc1ncc2c3c1c(-c1ccc(C(=O)Nc4cc(C(F)(F)F)ccn4)cc1)nn3[C@@H]1CCC[C@H](C1)C(=O)NCCCCCC/C=C\C2 [Example 92] | 500 to 10000 nM | 5 to 50 nM | 100 to 1000 nM | 5 to 50 nM
Nc1ncc2c3c1c(-c1ccc(C(=O)Nc4ccccn4)cc1)nn3[C@@H]1CCC[C@H](C1)C(=O)NCCCCCC/C=C\C2 [Example 93] | 500 to 10000 nM | < 5 nM | 100 to 1000 nM | 5 to 50 nM
Nc1ncc2c3c1c(-c1ccc(C(=O)Nc4cc(C(F)(F)F)ccn4)cc1)nn3[C@@H]1CCC[C@H](C1)NC(=O)CCC/C=C/C2 [Example 94a] | 500 to 10000 nM | 5 to 50 nM | 100 to 1000 nM | 5 to 50 nM
Nc1ncc2c3c1c(-c1ccc(C(=O)Nc4cc(C(F)(F)F)ccn4)cc1)nn3[C@@H]1CCC[C@H](C1)NC(=O)CCC/C=C\C2 [Example 94b] | 500 to 10000 nM | < 5 nM | 100 to 1000 nM | < 5 nM
Nc1ncc2c3c1c(-c1ccc(C(=O)Nc4cc(C(F)(F)F)ccn4)cc1)nn3[C@@H]1CCC[C@H](C1)NC(=O)CC/C=C/C2 [Example 95] | 500 to 10000 nM | 5 to 50 nM | 1000 to 10000 nM | 5 to 50 nM
Nc1ncc2c3c1c(-c1ccc(C(=O)Nc4ccccn4)cc1)nn3[C@@H]1CCC[C@H](C1)NC(=O)CC/C=C/C2 [Example 96a] | 500 to 10000 nM | 50 to 500 nM | 1000 to 10000 nM | 50 to 500 nM
Nc1ncc2c3c1c(-c1ccc(C(=O)Nc4ccccn4)cc1)nn3[C@@H]1CCC[C@H](C1)NC(=O)CC/C=C\C2 [Example 96b] | 500 to 10000 nM | 5 to 50 nM | 1000 to 10000 nM | 5 to 50 nM
Nc1ncc2c3c1c(-c1ccc(C(=O)Nc4cc(C(F)(F)F)ccn4)cc1)nn3[C@@H]1CCC[C@H](C1)NC(=O)COC/C=C/C2 [Example 97a] | 500 to 10000 nM | 5 to 50 nM | 1000 to 10000 nM | 5 to 50 nM
Nc1ncc2c3c1c(-c1ccc(C(=O)Nc4cc(C(F)(F)F)ccn4)cc1)nn3[C@@H]1CCC[C@H](C1)NC(=O)CCCC/C=C/C2 [Example 98a] | 500 to 10000 nM | 50 to 500 nM | 100 to 1000 nM | 50 to 500 nM
Nc1ncc2c3c1c(-c1ccc(C(=O)Nc4ccccn4)cc1)nn3[C@@H]1CCC[C@H](C1)NC(=O)CCC/C=C/C2 [Example 99a] | 500 to 10000 nM | 50 to 500 nM | 1000 to 10000 nM | 50 to 500 nM
Nc1ncc2c3c1c(-c1ccc(C(=O)Nc4ccccn4)cc1)nn3[C@@H]1CCC[C@H](C1)NC(=O)CCCC/C=C/C2 [Example 100a] | 500 to 10000 nM | 50 to 500 nM | 1000 to 10000 nM | 50 to 500 nM
Nc1ncc2n3c(nc(-c4ccc(C(=O)Nc5cc(C(F)(F)F)ccn5)cc4)c13)CCCNC(=O)CCC=CC2 [Example 134] | – | 5 to 50 nM | 1000 to 10000 nM | 5 to 50 nM
Nc1ncc2n3c(nc(-c4ccc(C(=O)Nc5cc(C(F)(F)F)ccn5)cc4)c13)CCCNC(=O)CCCC=CC2 [Example 135] | – | 5 to 50 nM | 1000 to 10000 nM | 5 to 50 nM
Nc1ncc2n3c(nc(-c4ccc(C(=O)Nc5cc(C(F)(F)F)ccn5)cc4)c13)[C@@H]1CCC[C@H](C1)NC(=O)CC/C=C/C2 [Example 136] | – | 5 to 50 nM | 1000 to 10000 nM | 5 to 50 nM
